Assay results taken from US20130143942A1, “METHODS OF CONTROLLING NEONICOTINOID RESISTANT APHIDS” (SYNGENTA CROP PROTECTION LLC, priority 2010, published 2013).

Key:
[1] = tested on: neonicotinoid insecticide susceptible strain 4106A; assay: leaf disc spray bioassay, aphid mortality 72 hours after treatment, susceptible strain; type: in vivo; conditions: mixed age aphids on chinese cabbage leaf discs, sprayed in Potter Tower, susceptible strain 4106A (Rothamsted Research)
Procedure: (§1) The following bioassay methodology was utilized to generate the data included in the table:
(§2) 5 cm leaf discs were taken from fully expanded chinese cabbage leaves and placed with the underside facing upwards onto water agar in 5 cm Petri dishes. The leaf discs are infested with between 30 and 40 mixed age aphids 24 hours prior to insecticide treatment. The leaf surface is sprayed with the appropriate test solutions in a Burkhard Potter Tower at an approximate water volume of 450 l/ha. Test containers are stored at 21° C., 60% RH and 16:8 light/dark. Aphids were assessed for mortality 72 hours after treatment.

[2] = tested on: neonicotinoid insecticide resistant aphid strain; assay: leaf disc spray bioassay, aphid mortality 72 hours after treatment, resistant strain; type: in vivo; conditions: mixed age aphids on chinese cabbage leaf discs, sprayed in Potter Tower, resistant strain collected from peach orchard, Avignon region, 2009
Procedure: as §1, §2

Q: With `CCOC(=O)OC1=C(c2cc(C)ccc2C)C(=O)N[C@]12CC[C@@H](OC)CC2` [sprirotetramat, cis-3-(2,5-dimethylphenyl)-8-methoxy-2-oxo-1-azaspiro[4.5]dec-3-en-4-yl ethyl carbonate] as the compound, how does the “LC50 with 95% confidence limit, susceptible strain” value [1] read?
A: The value was 0.88 (0.60-1.22) ppm.

Q: What about the “LC50 with 95% confidence limit, resistant strain” value [2] of the same compound?
A: Its value is 1.58 (1.14-2.23) ppm.
